Values belong to the molecule of their own block, whether it stands above or below them.
Assays:
Cannabinoid receptor 1 = Cannabinoid receptor 1 (Homo sapiens, UniProt P21554); test: Displacement of [3H]CP55940 from CB1 receptor
Cannabinoid receptor 2 = Cannabinoid receptor 2 (Homo sapiens, UniProt P34972); test: Displacement of [3H]CP55940 from CB2 receptor
[1] = Binding affinity to benzodiazepine binding site of GABAA receptor
Translocator protein = Translocator protein (Rattus norvegicus, UniProt P16257)
Translocator protein, sequence (P16257 whole entry, looked up): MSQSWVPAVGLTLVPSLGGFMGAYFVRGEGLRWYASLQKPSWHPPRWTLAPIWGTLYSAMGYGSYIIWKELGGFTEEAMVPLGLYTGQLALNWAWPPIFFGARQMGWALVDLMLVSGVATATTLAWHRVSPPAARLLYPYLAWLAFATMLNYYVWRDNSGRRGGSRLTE

[2] = target: T1, 5-hydroxytryptamine receptor 1D (Homo sapiens, UniProt P28221); test: Binding affinity to 5HT1D receptor by radioligand binding assay
T1 sequence (P28221 whole entry): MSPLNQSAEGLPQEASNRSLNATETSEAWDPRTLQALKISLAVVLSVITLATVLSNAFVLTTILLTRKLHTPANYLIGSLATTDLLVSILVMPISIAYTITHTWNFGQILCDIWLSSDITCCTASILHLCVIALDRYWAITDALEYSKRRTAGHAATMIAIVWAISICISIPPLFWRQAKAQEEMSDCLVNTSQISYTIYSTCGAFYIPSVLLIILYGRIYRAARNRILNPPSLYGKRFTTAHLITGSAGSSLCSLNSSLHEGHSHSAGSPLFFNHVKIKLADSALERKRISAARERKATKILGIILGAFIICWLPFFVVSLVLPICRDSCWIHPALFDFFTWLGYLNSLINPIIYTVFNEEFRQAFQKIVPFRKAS

D(1B) dopamine receptor = D(1B) dopamine receptor (Homo sapiens, UniProt P21918); test: Binding affinity to opamine D5 receptor by radioligand binding assay
D(1B) dopamine receptor, sequence (P21918 whole entry): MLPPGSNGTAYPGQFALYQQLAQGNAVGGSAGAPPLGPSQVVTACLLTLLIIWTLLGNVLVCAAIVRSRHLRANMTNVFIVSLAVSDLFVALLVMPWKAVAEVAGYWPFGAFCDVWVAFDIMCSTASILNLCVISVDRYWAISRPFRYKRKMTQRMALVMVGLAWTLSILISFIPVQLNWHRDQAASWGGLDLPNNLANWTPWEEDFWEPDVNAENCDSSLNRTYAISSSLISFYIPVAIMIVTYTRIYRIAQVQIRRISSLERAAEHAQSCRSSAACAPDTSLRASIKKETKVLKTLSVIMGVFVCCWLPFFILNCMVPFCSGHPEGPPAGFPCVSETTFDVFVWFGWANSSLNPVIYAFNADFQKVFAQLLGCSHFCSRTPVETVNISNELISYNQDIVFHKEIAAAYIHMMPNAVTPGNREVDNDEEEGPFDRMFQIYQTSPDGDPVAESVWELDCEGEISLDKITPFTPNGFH

[3] = target: Kappa-type opioid receptor (Homo sapiens, UniProt P41145); test: Binding affinity to kappa opioid receptor by radioligand binding assay
Kappa-type opioid receptor, sequence (P41145 whole entry): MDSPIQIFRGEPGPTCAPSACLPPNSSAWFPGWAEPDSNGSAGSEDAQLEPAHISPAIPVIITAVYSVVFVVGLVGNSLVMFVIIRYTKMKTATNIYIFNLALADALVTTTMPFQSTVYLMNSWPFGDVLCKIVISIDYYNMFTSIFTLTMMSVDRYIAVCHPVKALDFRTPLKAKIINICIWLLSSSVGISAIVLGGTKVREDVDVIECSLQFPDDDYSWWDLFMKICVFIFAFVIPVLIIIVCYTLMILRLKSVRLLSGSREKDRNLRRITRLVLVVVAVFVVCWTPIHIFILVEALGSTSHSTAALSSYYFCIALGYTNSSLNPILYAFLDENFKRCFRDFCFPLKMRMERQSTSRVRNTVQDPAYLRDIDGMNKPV

[4] = target: Muscarinic acetylcholine receptor M5 (Homo sapiens) (UniProt P08912); settings: 10 uM
[5] = target: Muscarinic acetylcholine receptor M4 (Homo sapiens) (UniProt P08173); settings: 10 uM
[6] = target: Muscarinic acetylcholine receptor M3 (Homo sapiens) (UniProt P20309); settings: 10 uM
[7] = target: Muscarinic acetylcholine receptor M1 (Homo sapiens) (UniProt P11229); settings: 10 uM
[8] = target: Muscarinic acetylcholine receptor M2 (Homo sapiens) (UniProt P08172); settings: 10 uM
[9] = target: 5-hydroxytryptamine receptor 1A (Homo sapiens) (UniProt P08908); settings: 10 uM
5-hydroxytryptamine receptor 1A (Homo sapiens), sequence (P08908 whole entry): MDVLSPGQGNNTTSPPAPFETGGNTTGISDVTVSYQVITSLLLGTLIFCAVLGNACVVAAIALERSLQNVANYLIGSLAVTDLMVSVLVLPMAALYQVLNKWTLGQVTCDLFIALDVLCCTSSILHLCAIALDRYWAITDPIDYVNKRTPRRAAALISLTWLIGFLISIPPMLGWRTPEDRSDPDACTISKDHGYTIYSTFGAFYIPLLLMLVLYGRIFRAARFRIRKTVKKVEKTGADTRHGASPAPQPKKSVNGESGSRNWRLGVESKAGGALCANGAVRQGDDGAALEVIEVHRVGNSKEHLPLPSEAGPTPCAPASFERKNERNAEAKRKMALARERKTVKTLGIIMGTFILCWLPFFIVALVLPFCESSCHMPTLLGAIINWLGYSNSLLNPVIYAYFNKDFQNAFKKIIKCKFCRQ

[10] = target: 5-hydroxytryptamine receptor 1E (Homo sapiens) (UniProt P28566); settings: 10 uM
5-hydroxytryptamine receptor 1E (Homo sapiens), sequence (P28566 whole entry): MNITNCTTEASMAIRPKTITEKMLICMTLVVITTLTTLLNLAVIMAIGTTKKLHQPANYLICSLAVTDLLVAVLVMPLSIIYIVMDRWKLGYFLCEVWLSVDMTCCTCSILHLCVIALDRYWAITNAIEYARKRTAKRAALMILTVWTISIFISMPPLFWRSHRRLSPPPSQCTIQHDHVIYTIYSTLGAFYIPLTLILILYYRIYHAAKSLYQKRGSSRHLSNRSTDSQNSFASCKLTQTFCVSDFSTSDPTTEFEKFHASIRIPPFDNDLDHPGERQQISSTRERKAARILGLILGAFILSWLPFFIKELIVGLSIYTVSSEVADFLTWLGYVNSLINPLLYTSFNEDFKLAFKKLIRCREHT

[11] = target: T1, 5-hydroxytryptamine receptor 1D; settings: 10 uM
[12] = target: 5-hydroxytryptamine receptor 2A (Homo sapiens) (UniProt P28223); settings: 10 uM
[13] = target: 5-hydroxytryptamine receptor 2B (Homo sapiens) (UniProt P41595); settings: 10 uM
[14] = target: 5-hydroxytryptamine receptor 2C (Homo sapiens) (UniProt P28335); settings: 10 uM
[15] = target: 5-hydroxytryptamine receptor 3A (Homo sapiens) (UniProt P46098); settings: 10 uM
5-hydroxytryptamine receptor 3A (Homo sapiens), sequence (P46098 whole entry): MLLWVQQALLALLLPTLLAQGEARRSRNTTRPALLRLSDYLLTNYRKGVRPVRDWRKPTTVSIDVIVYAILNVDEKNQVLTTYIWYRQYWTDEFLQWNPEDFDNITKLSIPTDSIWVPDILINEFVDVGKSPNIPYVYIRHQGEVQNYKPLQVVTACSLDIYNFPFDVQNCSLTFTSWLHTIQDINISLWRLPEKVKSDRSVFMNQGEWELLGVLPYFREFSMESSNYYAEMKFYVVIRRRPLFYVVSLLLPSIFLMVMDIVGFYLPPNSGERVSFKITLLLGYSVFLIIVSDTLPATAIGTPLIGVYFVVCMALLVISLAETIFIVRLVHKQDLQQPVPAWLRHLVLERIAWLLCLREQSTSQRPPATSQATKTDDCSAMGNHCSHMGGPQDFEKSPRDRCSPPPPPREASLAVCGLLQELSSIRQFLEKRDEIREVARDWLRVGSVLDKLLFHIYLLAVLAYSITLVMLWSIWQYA

[16] = target: 5-hydroxytryptamine receptor 5A (Homo sapiens) (UniProt P47898); settings: 10 uM
5-hydroxytryptamine receptor 5A (Homo sapiens), sequence (P47898 whole entry): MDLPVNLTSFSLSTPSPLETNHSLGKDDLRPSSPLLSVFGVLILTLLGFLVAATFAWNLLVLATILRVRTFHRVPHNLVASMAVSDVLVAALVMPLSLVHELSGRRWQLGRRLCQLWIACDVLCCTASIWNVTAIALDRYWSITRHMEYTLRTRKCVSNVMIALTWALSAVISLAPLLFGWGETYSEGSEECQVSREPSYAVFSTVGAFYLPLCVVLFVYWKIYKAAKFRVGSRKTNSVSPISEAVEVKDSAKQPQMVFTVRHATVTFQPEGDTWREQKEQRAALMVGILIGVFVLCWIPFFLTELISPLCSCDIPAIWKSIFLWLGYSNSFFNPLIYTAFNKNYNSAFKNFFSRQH

[17] = target: 5-hydroxytryptamine receptor 6 (Homo sapiens) (UniProt P50406); settings: 10 uM
[18] = target: 5-hydroxytryptamine receptor 7 (Homo sapiens) (UniProt P34969); settings: 10 uM
[19] = target: Alpha-1A adrenergic receptor (Homo sapiens) (UniProt P35348); settings: 10 uM
[20] = target: Alpha-1B adrenergic receptor (Homo sapiens) (UniProt P35368); settings: 10 uM
[21] = target: Alpha-2A adrenergic receptor (Homo sapiens) (UniProt P08913); settings: 10 uM
[22] = target: Alpha-2B adrenergic receptor (Homo sapiens) (UniProt P18089); settings: 10 uM
[23] = target: Alpha-2C adrenergic receptor (Homo sapiens) (UniProt P18825); settings: 10 uM
[24] = target: Beta-1 adrenergic receptor (Homo sapiens) (UniProt P08588); settings: 10 uM
[25] = target: Beta-3 adrenergic receptor (Homo sapiens) (UniProt P13945); settings: 10 uM
[26] = target: D(1A) dopamine receptor (Homo sapiens) (UniProt P21728); settings: 10 uM
[27] = target: D(2) dopamine receptor (Homo sapiens) (UniProt P14416); settings: 10 uM
[28] = target: D(3) dopamine receptor (Homo sapiens) (UniProt P35462); settings: 10 uM
[29] = target: D(4) dopamine receptor (Homo sapiens) (UniProt P21917); settings: 10 uM
[30] = target: Sodium-dependent dopamine transporter (Homo sapiens) (UniProt Q01959); settings: 10 uM
[31] = target: Delta-type opioid receptor (Homo sapiens) (UniProt P41143); settings: 10 uM
[32] = target: Histamine H1 receptor (Homo sapiens) (UniProt P35367); settings: 10 uM
Histamine H1 receptor (Homo sapiens), sequence (P35367 whole entry): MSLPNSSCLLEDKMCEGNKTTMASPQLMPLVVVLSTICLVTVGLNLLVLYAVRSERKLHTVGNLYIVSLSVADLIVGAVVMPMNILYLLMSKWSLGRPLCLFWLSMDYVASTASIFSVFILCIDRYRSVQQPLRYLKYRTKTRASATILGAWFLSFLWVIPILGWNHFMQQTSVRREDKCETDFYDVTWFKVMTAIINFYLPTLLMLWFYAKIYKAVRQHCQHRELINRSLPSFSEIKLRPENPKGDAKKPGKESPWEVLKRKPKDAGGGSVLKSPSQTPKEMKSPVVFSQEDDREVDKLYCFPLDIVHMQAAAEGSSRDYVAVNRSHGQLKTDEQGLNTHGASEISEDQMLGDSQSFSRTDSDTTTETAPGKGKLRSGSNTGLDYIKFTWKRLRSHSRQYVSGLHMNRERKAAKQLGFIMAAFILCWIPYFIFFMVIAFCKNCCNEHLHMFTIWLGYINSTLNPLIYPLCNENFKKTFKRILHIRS

[33] = target: Histamine H2 receptor (Homo sapiens) (UniProt P25021); settings: 10 uM
[34] = target: Histamine H3 receptor (Homo sapiens) (UniProt Q9Y5N1); settings: 10 uM
[35] = target: Histamine H4 receptor (Homo sapiens) (UniProt Q9H3N8); settings: 10 uM
[36] = target: Mu-type opioid receptor (Homo sapiens) (UniProt P35372); settings: 10 uM
[37] = target: Sodium-dependent noradrenaline transporter (Homo sapiens) (UniProt P23975); settings: 10 uM
[38] = target: Sodium-dependent serotonin transporter (Homo sapiens) (UniProt P31645); settings: 10 uM
[39] = target: Sigma non-opioid intracellular receptor 1 (Homo sapiens) (UniProt Q99720); settings: 10 uM
[40] = target: Vasopressin V1a receptor (Homo sapiens) (UniProt P37288); settings: 10 uM
[41] = target: Vasopressin V1b receptor (Homo sapiens) (UniProt P47901); settings: 10 uM
[42] = target: Vasopressin V2 receptor (Homo sapiens) (UniProt P30518); settings: 10 uM
Vasopressin V2 receptor (Homo sapiens), sequence (P30518 whole entry): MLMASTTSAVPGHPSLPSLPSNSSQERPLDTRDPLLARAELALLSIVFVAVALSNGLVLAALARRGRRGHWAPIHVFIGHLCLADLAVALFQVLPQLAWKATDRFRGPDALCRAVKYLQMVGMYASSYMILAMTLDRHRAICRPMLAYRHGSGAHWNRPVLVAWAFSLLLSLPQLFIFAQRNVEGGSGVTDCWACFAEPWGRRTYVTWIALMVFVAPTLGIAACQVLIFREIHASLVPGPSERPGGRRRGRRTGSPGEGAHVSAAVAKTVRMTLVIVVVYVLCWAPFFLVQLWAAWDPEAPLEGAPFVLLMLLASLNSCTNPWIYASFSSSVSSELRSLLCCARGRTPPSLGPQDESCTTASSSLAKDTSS

Cannabinoid receptor 1, sequence (P21554 whole entry): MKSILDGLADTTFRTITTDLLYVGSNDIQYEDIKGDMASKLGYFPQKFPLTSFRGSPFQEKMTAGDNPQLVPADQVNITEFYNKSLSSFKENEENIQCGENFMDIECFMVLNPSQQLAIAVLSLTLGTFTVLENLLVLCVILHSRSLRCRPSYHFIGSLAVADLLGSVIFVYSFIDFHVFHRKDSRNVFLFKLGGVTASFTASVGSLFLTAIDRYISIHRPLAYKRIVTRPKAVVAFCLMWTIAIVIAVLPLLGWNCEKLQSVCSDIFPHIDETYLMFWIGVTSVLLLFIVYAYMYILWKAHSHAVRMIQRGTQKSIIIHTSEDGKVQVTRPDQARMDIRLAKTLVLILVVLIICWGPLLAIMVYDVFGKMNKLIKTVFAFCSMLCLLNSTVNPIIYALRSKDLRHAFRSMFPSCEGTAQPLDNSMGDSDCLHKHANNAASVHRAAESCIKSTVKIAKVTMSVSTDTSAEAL
Cannabinoid receptor 2, sequence (P34972 whole entry): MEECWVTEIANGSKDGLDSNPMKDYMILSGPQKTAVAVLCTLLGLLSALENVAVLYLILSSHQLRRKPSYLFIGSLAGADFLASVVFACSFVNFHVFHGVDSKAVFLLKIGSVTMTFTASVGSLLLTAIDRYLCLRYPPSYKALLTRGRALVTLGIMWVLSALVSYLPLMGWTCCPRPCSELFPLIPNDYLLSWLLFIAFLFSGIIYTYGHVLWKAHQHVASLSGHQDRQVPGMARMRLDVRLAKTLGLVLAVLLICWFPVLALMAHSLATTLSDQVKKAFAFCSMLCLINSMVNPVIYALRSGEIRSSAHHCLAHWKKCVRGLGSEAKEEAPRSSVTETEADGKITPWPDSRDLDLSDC

SMILES: Cc1c(C(=O)N(C)C2(C#N)CCOCC2)nn(-c2ccccc2Cl)c1-c1ccccc1
- Ki (Cannabinoid receptor 1): > 10 µM
- Ki (Cannabinoid receptor 2): > 10 µM
- Ki [1]: > 10 µM
- Ki (Translocator protein): 0.88 µM

SMILES: COc1ccc(-c2c(C)c(C(=O)NC3(C#N)CCCCC3)nn2-c2ccccc2Br)cc1
- Ki (Cannabinoid receptor 1): 0.0157 µM
- Ki (Cannabinoid receptor 2): 2.75 µM
- Ki [1]: > 10 µM
- Ki [2]: > 10 µM
- Ki (D(1B) dopamine receptor): > 10 µM
- Ki [3]: 0.597 µM
- Ki (Translocator protein): 0.279 µM
- inhibition [4]: < 50%
- inhibition [5]: < 50%
- inhibition [6]: < 50%
- inhibition [7]: < 50%
- inhibition [8]: < 50%
- inhibition [9]: < 50%
- inhibition [10]: < 50%
- inhibition [11]: < 50%
- inhibition [12]: < 50%
- inhibition [13]: < 50%
- inhibition [14]: < 50%
- inhibition [15]: < 50%
- inhibition [16]: < 50%
- inhibition [17]: < 50%
- inhibition [18]: < 50%
- inhibition [19]: < 50%
- inhibition [20]: < 50%
- inhibition [21]: < 50%
- inhibition [22]: < 50%
- inhibition [23]: < 50%
- inhibition [24]: < 50%
- inhibition [25]: < 50%
- inhibition [26]: < 50%
- inhibition [27]: < 50%
- inhibition [28]: < 50%
- inhibition [29]: < 50%
- inhibition [30]: < 50%
- inhibition [31]: < 50%
- inhibition [32]: < 50%
- inhibition [33]: < 50%
- inhibition [34]: < 50%
- inhibition [35]: < 50%
- inhibition [36]: < 50%
- inhibition [37]: < 50%
- inhibition [38]: < 50%
- inhibition [39]: < 50%
- inhibition [40]: < 50%
- inhibition [41]: < 50%
- inhibition [42]: < 50%

SMILES: Cc1c(C(=O)NC2(C#N)CCOCC2)nn(-c2ccccc2-c2ccccc2)c1-c1ccccc1
- Ki [1]: > 10 µM

SMILES: COc1ccc(-c2c(C)c(C(=O)NC3(C#N)CCOCC3)nn2-c2ccccc2F)cc1
- Ki (Cannabinoid receptor 1): 0.115 µM
- Ki (Cannabinoid receptor 2): 2.46 µM
- Ki [1]: > 10 µM

SMILES: Cc1c(C(=O)NC2(C#N)CCOCC2)nn(-c2ccccc2Br)c1-c1cccc(F)c1
- Ki (Cannabinoid receptor 1): > 10 µM
- Ki (Cannabinoid receptor 2): > 10 µM
- Ki [1]: > 10 µM

SMILES: COc1ccc(-c2c(C)c(C(=O)NC3(C#N)CCOCC3)nn2-c2cccc(Br)c2)cc1
- Ki (Cannabinoid receptor 1): 0.68 µM
- Ki (Cannabinoid receptor 2): 0.234 µM
- Ki [1]: > 10 µM

SMILES: Cc1c(C(=O)NC2(C#N)CCOCC2)nn(-c2ccccc2F)c1-c1ccccc1
- Ki [1]: > 10 µM

SMILES: Cc1c(C(=O)NC2(C#N)CCOCC2)nn(-c2ccc(Br)cc2)c1-c1ccccc1
- Ki (Cannabinoid receptor 1): 0.259 µM
- Ki (Cannabinoid receptor 2): 0.655 µM
- Ki [1]: > 10 µM

SMILES: Cc1c(C(=O)NC2(C#N)CCOCC2)nn(-c2ccccc2Cl)c1-c1ccccc1
- Ki (Cannabinoid receptor 1): > 10 µM
- Ki (Cannabinoid receptor 2): > 10 µM
- Ki [1]: > 10 µM
- Ki (Translocator protein): 0.436 µM

SMILES: Cc1c(C(=O)NC2(C#N)CCCCC2)nn(-c2ccccc2Br)c1-c1ccccc1
- Ki [1]: > 10 µM

SMILES: COc1ccc(-c2c(C#N)c(C(=O)NC3(C#N)CCOCC3)nn2-c2ccccc2I)cc1
- Ki (Cannabinoid receptor 1): > 10 µM
- Ki (Cannabinoid receptor 2): 2.37 µM
- Ki [1]: > 10 µM
- Ki (Translocator protein): 1.92 µM

SMILES: N#Cc1c(C(=O)NC2(C#N)CCOCC2)nn(-c2ccccc2Br)c1-c1ccccc1
- Ki (Cannabinoid receptor 1): 0.437 µM
- Ki (Cannabinoid receptor 2): > 10 µM
- Ki [1]: > 10 µM
- Ki (Translocator protein): 3.69 µM

- Ki [1]: > 10 µM
SMILES: CCC(C)N(C)C(=O)c1cc2ccccc2c(-c2ccccc2Cl)n1 (stereo not drawn) [PK-11195]

- Ki [1]: > 10 µM
SMILES: Cc1c(C(=O)NN2CCCCC2)nn(-c2ccc(Cl)cc2Cl)c1-c1ccc(Cl)cc1 [RIMONABANT]

SMILES: Cc1c(C(=O)NC2(C#N)CCOCC2)nn(-c2ccccc2Br)c1-c1ccccc1
- Ki [1]: > 10 µM

SMILES: Cc1c(C(=O)NC2(C#N)CCOCC2)nn(-c2ccccc2Br)c1-c1ccc(F)cc1
- Ki [1]: > 10 µM

SMILES: N#CC1(NC(=O)c2cc(-c3ccccc3)n(-c3ccccc3Br)n2)CCOCC1
- Ki (Cannabinoid receptor 1): 0.297 µM
- Ki (Cannabinoid receptor 2): > 10 µM
- Ki [1]: > 10 µM
- Ki (Translocator protein): 3.11 µM

SMILES: Cc1c(C(=O)NC2(C#N)CCOCC2)nn(-c2ccccc2I)c1-c1ccccc1
- Ki [1]: > 10 µM

SMILES: COc1ccc(-c2c(Br)c(C(=O)NC3(C#N)CCOCC3)nn2-c2cccc(Br)c2)cc1
- Ki [1]: > 10 µM

SMILES: Cc1c(C(=O)NC2(C#N)CCOCC2)nn(-c2cccc(Br)c2)c1-c1ccccc1
- Ki [1]: > 10 µM
